Patent US20250171430A1, “PYRAZOLYL COMPOUNDS AS KV7 CHANNEL ACTIVATORS” (Biohaven Therapeutics Ltd., priority 2022, published 2025)

Target: T1, Kv7.2/7.3 (Homo sapiens, UniProt O43525+O43526)
T1 construct: Kv7.2 tetracycline-induced, Kv7.3 constitutive
Assay: Kv7.2/7.3 Activation Assay (Thallium Flux Assay)
Assay type: cell-based
Conditions: hKV7.2/7.3 cell line; test compound at single concentration of 10 μM; fluorescence at 90 sec normalized to positive control (retigabine, 30 μM)
Text: The Thallium Flux Assay is used as a surrogate indicator of potassium channel activity.
The experimental protocol was adapted from the FluxOR™ II Green Potassium Ion Channel Assay User Guide (Pub. No. MAN0016084, Invitrogen). Conditions were optimized for the Kv7.2/7.3 cell line.
Cell Line: The hKV7.2/7.3 cell line was obtained from Chantest (cat. #CT6147).
Cell Culture: Kv7.2/7.3 cells were maintained in a media containing DMEM/F12; 50/50 (Fisher 11-330), 10% Fetal Bovine Serum (FBS) (Fisher 26-140), 100 units/mL Penicillin-Streptomycin (Fisher 15-140), 0.005 mg/ml Blasticidin (InvivoGen ant-bl-1), 0.5 mg/mL Geneticin (InvivoGen ant-gn-5), and 0.1 mg/mL Zeocin (Fisher R25001). One day prior to experimentation, cells were plated in 96 well clear bottom plates (Corning cat. #353219) in a media without Blasticidin, Geneticin, or Zeocin. In this cell line Kv7.3 channel expression is controlled by a constitutive promoter. Kv7.2 channel expression was induced by adding tetracycline (Sigma T7660) at a final concentration of 10 ng/mL overnight in a cell culture incubator at 37° C. and 5% CO2. On the day of assay, the cell culture medium in the 96-well plates was replaced by assay buffer containing the thallium-sensitive fluorescent sensor, FluxOR II Green prepared according to manufacturer's instructions. The 96-well plates were then incubated for 1 h at 37° C. Following the incubation, the FluxOR II Green-containing solution was replaced with extracellular solution.
Test Compound Plates: The test compound is diluted in a mixture of 0.1% DMSO/extracellular solution at a single concentration of 10 μM. Dilutions were made on a Biomek NXP (BECKMAN COULTER). Extracellular solution contained (in mM: 145 NaCl, 4 KCl, 2 CaCl2), 1 MgCl2, 10 HEPES, and 10 Glucose, pH 7.4).
Measurement and data analysis: Thallium-flux-mediated changes in intracellular fluorescence were made using a plate reader (Enspire, Perkin Elmer) set with an excitation wavelength of 475 nm and an emission wavelength of 530 nm. After a 15 sec baseline measurement, the stimulus buffer containing thallium and potassium was added to the 96-well plate containing FluxOR II Green-loaded cells and test compounds. Fluorescence values at 90 sec were normalized to the positive control (retigabine, 30 μM) and test compound activities were assigned categories according to the formula: “No Activity <0.15, “+” Moderate Activity 0.15-0.7, and “++” High Activity >0.7.

Structure (SMILES) | Kv7.2/7.3 Activity
CCn1nc(NC(=O)CC(C)(C)C)c(C2CC2)c1C [Compound 7, N-(4-cyclopropyl-1-ethyl-5-methyl-1H-pyrazol-3-yl)-3,3-dimethylbutanamide] | + (“+” Moderate Activity 0.15-0.7)
CCn1nc(NC(=O)Cc2ccccc2C(F)(F)F)c(C2CC2)c1C [Compound 8, N-(4-cyclopropyl-1-ethyl-5-methyl-1H-pyrazol-3-yl)-2-(2-(trifluoromethyl)phenyl)acetamide] | + (“+” Moderate Activity 0.15-0.7)
CCn1nc(NC(=O)Cc2cc(Cl)ccc2Cl)c(C2CC2)c1C [Compound 9, N-(4-cyclopropyl-1-ethyl-5-methyl-1H-pyrazol-3-yl)-2-(2,5-dichlorophenyl)acetamide] | + (“+” Moderate Activity 0.15-0.7)
CCn1nc(NC(=O)[C@H]2CC2(C)C)c(C2CC2)c1C [Compound 10, (S)-N-(4-cyclopropyl-1-ethyl-5-methyl-1H-pyrazol-3-yl)-2,2-dimethylcyclopropane-1-carboxamide] | + (“+” Moderate Activity 0.15-0.7)
CCn1nc(NC(=O)c2ccc(F)c(F)c2)c(C2CC2)c1C [Compound 11, N-(4-cyclopropyl-1-ethyl-5-methyl-1H-pyrazol-3-yl)-3,4-difluorobenzamide] | − (“−” No Activity < 0.15)
Cn1nc(NC(=O)CC2(C(F)(F)F)CC2)c(C2CCC2)c1-c1ccccc1 [Compound 12, N-(4-cyclobutyl-1-methyl-5-phenyl-1H-pyrazol-3-yl)-2-(1-(trifluoromethyl)cyclopropyl)acetamide] | ++ (“++” High Activity ≥ 0.7)
Cn1nc(NC(=O)C[C@@H]2CC(F)(F)C2(F)F)c(C2CCC2)c1-c1ccc(F)cc1 [Compound 14, (R)-N-(4-cyclobutyl-5-(4-fluorophenyl)-1-methyl-1H-pyrazol-3-yl)-2-(2,2,3,3-tetrafluorocyclobutyl)acetamide] | ++ (“++” High Activity ≥ 0.7)
Cn1nc(NC(=O)C[C@@H]2CC(F)(F)C2(F)F)c(C2CCC2)c1Cc1ccccc1 [Compound 15, (R)-N-(5-benzyl-4-cyclobutyl-1-methyl-1H-pyrazol-3-yl)-2-(2,2,3,3-tetrafluorocyclobutyl)acetamide] | ++ (“++” High Activity ≥ 0.7)
Cc1c(NC(=O)CC(C)(C)C(F)(F)F)nn(C)c1-c1ccc(F)cc1 [Compound 20, 4,4,4-trifluoro-N-(5-(4-fluorophenyl)-1,4-dimethyl-1H-pyrazol-3-yl)-3,3-dimethylbutanamide] | ++ (“++” High Activity ≥ 0.7)
Cn1nc(NC(=O)C[C@H]2CC(F)(F)C2(F)F)c(C2CCC2)c1-c1ccc(F)cc1 [Compound 21, (S)-N-(4-cyclobutyl-5-(4-fluorophenyl)-1-methyl-1H-pyrazol-3-yl)-2-(2,2,3,3-tetrafluorocyclobutyl)acetamide] | ++ (“++” High Activity ≥ 0.7)
CC(C)c1c(NC(=O)CC(C)(C)C)nn(C)c1-c1ccc(F)cc1 [Compound 22, N-(5-(4-fluorophenyl)-4-isopropyl-1-methyl-1H-pyrazol-3-yl)-3,3-dimethylbutanamide] | ++ (“++” High Activity ≥ 0.7)
CC(C)c1c(NC(=O)C[C@@H]2CC(F)(F)C2(F)F)nn(C)c1-c1ccc(OC(F)(F)F)cc1 [Compound 24, (R)-N-(4-isopropyl-1-methyl-5-(4-(trifluoromethoxy)phenyl)-1H-pyrazol-3-yl)-2-(2,2,3,3-tetrafluorocyclobutyl)acetamide] | ++ (“++” High Activity ≥ 0.7)

Next, values leading:

Kv7.2/7.3 Activity | Structure (SMILES)
+ (“+” Moderate Activity 0.15-0.7) | Cc1c(C2CCC2)c(NC(=O)Cc2cc(F)cc(F)c2)nn1C [Compound 1, N-(4-cyclobutyl-1,5-dimethyl-1H-pyrazol-3-yl)-2-(3,5-difluorophenyl)acetamide]
+ (“+” Moderate Activity 0.15-0.7) | CCn1nc(NC(=O)CC(C(F)(F)F)C(F)(F)F)c(C2CC2)c1C [Compound 2, N-(4-cyclopropyl-1-ethyl-5-methyl-1H-pyrazol-3-yl)-4,4,4-trifluoro-3-(trifluoromethyl)butanamide]
++ (“++” High Activity ≥ 0.7) | CCn1nc(NC(=O)Cc2cc(F)cc(F)c2)c(C2CC2)c1C [Compound 3, N-(4-cyclopropyl-1-ethyl-5-methyl-1H-pyrazol-3-yl)-2-(3,5-difluorophenyl)acetamide]
− (“−” No Activity < 0.15) | CCn1nc(NC(=O)CC(C)(C)O)c(C2CC2)c1C [Compound 4, N-(4-cyclopropyl-1-ethyl-5-methyl-1H-pyrazol-3-yl)-3-hydroxy-3-methylbutanamide]
− (“−” No Activity < 0.15) | CCn1nc(NC(=O)CC(C)C)c(C2CC2)c1C [Compound 5, N-(4-cyclopropyl-1-ethyl-5-methyl-1H-pyrazol-3-yl)-3-methylbutanamide]
− (“−” No Activity < 0.15) | CCOC(=O)Nc1nn(CC)c(C)c1C1CC1 [Compound 6, ethyl (4-cyclopropyl-1-ethyl-5-methyl-1H-pyrazol-3-yl)carbamate]
++ (“++” High Activity ≥ 0.7) | Cn1nc(NC(=O)CC(C)(C)C(F)(F)F)c(C2CCC2)c1-c1ccccc1 [Compound 13, N-(4-cyclobutyl-1-methyl-5-phenyl-1H-pyrazol-3-yl)-4,4,4-trifluoro-3,3-dimethylbutanamide]
++ (“++” High Activity ≥ 0.7) | Cn1nc(NC(=O)C[C@H]2CC(F)(F)C2(F)F)c(C2CCC2)c1Cc1ccccc1 [Compound 16, (S)-N-(5-benzyl-4-cyclobutyl-1-methyl-1H-pyrazol-3-yl)-2-(2,2,3,3-tetrafluorocyclobutyl)acetamide]
++ (“++” High Activity ≥ 0.7) | Cn1nc(NC(=O)CC2(C(F)(F)F)CC2)c(C2CCC2)c1Cc1ccccc1 [Compound 17, N-(5-benzyl-4-cyclobutyl-1-methyl-1H-pyrazol-3-yl)-2-(1-(trifluoromethyl)cyclopropyl)acetamide]
++ (“++” High Activity ≥ 0.7) | Cn1nc(NC(=O)C[C@@H]2CC(F)(F)C2(F)F)c(C2CCC2)c1-c1noc2ccccc12 [Compound 18, (R)-N-(5-(benzo[d]isoxazol-3-yl)-4-cyclobutyl-1-methyl-1H-pyrazol-3-yl)-2-(2,2,3,3-tetrafluorocyclobutyl)acetamide]
++ (“++” High Activity ≥ 0.7) | Cn1nc(NC(=O)C[C@H]2CC(F)(F)C2(F)F)c(C2CCC2)c1-c1noc2ccccc12 [Compound 19, (S)-N-(5-(benzo[d]isoxazol-3-yl)-4-cyclobutyl-1-methyl-1H-pyrazol-3-yl)-2-(2,2,3,3-tetrafluorocyclobutyl)acetamide]
++ (“++” High Activity ≥ 0.7) | CC(C)c1c(NC(=O)CC(C)(C)C)nn(C)c1-c1ccc(OC(F)(F)F)cc1 [Compound 23, N-(4-isopropyl-1-methyl-5-(4-(trifluoromethoxy)phenyl)-1H-pyrazol-3-yl)-3,3-dimethylbutanamide]
++ (“++” High Activity ≥ 0.7) | CC(C)c1c(NC(=O)C[C@H]2CC(F)(F)C2(F)F)nn(C)c1-c1ccc(OC(F)(F)F)cc1 [Compound 25, (S)-N-(4-isopropyl-1-methyl-5-(4-(trifluoromethoxy)phenyl)-1H-pyrazol-3-yl)-2-(2,2,3,3-tetrafluorocyclobutyl)acetamide]
